Experimental data reported in publication PMC10120312 (Cell Insight, 2022).

Key:
[1] = molecular target: EV-A71 VP1 (Human enterovirus 71, UniProt Q66478); assay type: binding; conditions: MST, 500 nM VP1-EGFP
[2] = test system: EV-A71; assay: Viral binding assay; assay type: cell-based; conditions: qRT-PCR; PTC-209HBr 3.2 μM, enviroxime 0.32 μM, pirodavir 0.64 μM; MOI 30
[3] = test system: EV-A71; assay: Viral entry assay; assay type: cell-based; conditions: qRT-PCR; PTC-209HBr 3.2 μM, enviroxime 0.32 μM, pirodavir 0.64 μM; MOI 30
[4] = test system: EV-A71; assay: CPE assay against EV-A71 in RD cells; assay type: cell-based, Enterovirus 71 (EV-A71); conditions: Enterovirus A, EVA71, RD, read-out: EC50 against EV-A71
[5] = molecular target: VP1 and hSCARB2 (Human enterovirus 71, UniProt Q66478); assay: IF assay of colocalization between VP1 and hSCARB2; assay type: cell-based; conditions: RD cells, vs untreated cells
VP1 and hSCARB2, sequence (Q66478 324-565): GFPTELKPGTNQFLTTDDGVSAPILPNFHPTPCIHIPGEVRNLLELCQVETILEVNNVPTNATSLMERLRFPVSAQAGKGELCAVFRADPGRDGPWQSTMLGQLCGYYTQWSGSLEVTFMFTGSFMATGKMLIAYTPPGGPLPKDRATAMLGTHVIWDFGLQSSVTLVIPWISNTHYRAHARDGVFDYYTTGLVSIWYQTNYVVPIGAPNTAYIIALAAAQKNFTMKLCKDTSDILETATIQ
VP1 and hSCARB2, sequence (Q66478 566-862): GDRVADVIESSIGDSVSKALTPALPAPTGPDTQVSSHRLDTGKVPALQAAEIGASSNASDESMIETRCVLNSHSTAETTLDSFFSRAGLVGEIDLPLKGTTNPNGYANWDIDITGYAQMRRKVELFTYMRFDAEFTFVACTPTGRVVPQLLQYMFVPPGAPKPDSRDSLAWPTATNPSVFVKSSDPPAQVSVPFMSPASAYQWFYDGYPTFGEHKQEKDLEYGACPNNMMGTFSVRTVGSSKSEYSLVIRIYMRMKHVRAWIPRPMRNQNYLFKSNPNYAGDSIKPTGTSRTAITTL
VP1 and hSCARB2, sequence (Q66478 70-323): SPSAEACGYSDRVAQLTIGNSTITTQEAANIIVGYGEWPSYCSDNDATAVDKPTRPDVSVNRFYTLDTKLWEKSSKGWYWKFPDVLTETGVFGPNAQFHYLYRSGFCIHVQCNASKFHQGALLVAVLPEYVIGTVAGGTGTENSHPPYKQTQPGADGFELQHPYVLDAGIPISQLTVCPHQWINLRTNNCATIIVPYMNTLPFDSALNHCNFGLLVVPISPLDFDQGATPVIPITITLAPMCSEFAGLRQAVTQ
VP1 and hSCARB2, sequence (Q66478 2-69): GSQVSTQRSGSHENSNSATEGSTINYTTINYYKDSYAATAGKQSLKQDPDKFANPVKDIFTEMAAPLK

EV-A71 VP1, sequence (Q66478 566-862): as the sequence (Q66478 566-862) above

SMILES | Kd VP1 [1] | Inhibition of EV-A71 binding (RNA level) [2] | Inhibition of EV-A71 entry (RNA level) [3] | EC50 [4] [nM] | Colocalization between VP1 and hSCARB2 in EV-A71-infected cells [5]
CC(C)S(=O)(=O)n1c(N)nc2ccc(/C(=N/O)c3ccccc3)cc21 [Enviroxime, enviroxime] | low binding affinity | little inhibited | little inhibited | 178 | decreased
CCOC(=O)c1ccc(OCCC2CCN(c3ccc(C)nn3)CC2)cc1 [Pirodavir, pirodavir] |  | dramatically inhibit | but not entry | 5250 | 
